Measurements from article PMC5218480 (PLoS ONE, 2017).

System: MV-4-11 cells
Test: Gene expression microarray analysis (Affymetrix PrimeView) and GSEA
Format: cell-based, human
Parameters: RFU PODN (11730768_x_at) / Fold change /veh PODN (11730768_x_at) / RFU LINC00158 (11744669_a_at) / Fold change /veh LINC00158 (11744669_a_at) / RFU DUSP10 (11751237_a_at) / Fold change /veh DUSP10 (11751237_a_at) / RFU ID3 (11757404_x_at) / Fold change /veh ID3 (11757404_x_at) / RFU PLEKHG5 (11737974_s_at) / Fold change /veh PLEKHG5 (11737974_s_at) / RFU LRRC4B (11730491_at) / Fold change /veh LRRC4B (11730491_at) / RFU GIMAP4 (11747438_a_at) / Fold change /veh GIMAP4 (11747438_a_at) / RFU KRT8 (11758183_x_at) / Fold change /veh KRT8 (11758183_x_at) / RFU CNN1 (11734310_a_at) / Fold change /veh CNN1 (11734310_a_at) / RFU VPS37D (11726825_at) / Fold change /veh VPS37D (11726825_at) / RFU C10orf10 (11716522_x_at) / Fold change /veh C10orf10 (11716522_x_at) / RFU KIR2DL2 /// KIR2DL4 /// KIR2DL5A /// KIR2DL5B /// KIR2DS1 /// KIR2DS2 /// KIR2DS3 /// KIR2DS4 /// KIR3DL3 /// KIR3DL3 /// KIR3DS1 (11738374_at) / Fold change /veh KIR2DL2 /// KIR2DL4 /// KIR2DL5A /// KIR2DL5B /// KIR2DS1 /// KIR2DS2 /// KIR2DS3 /// KIR2DS4 /// KIR3DL3 /// KIR3DL3 /// KIR3DS1 (11738374_at) / RFU C1QL1 (11718748_at) / Fold change /veh C1QL1 (11718748_at) / RFU TMPRSS4 (11747572_a_at) / Fold change /veh TMPRSS4 (11747572_a_at) / RFU HAMP (11756126_x_at) / Fold change /veh HAMP (11756126_x_at) / RFU RNFT2 (11725882_a_at) / Fold change /veh RNFT2 (11725882_a_at) / RFU NR4A2 (11747474_a_at) / Fold change /veh NR4A2 (11747474_a_at) / RFU ABCC12 (11746883_a_at) / Fold change /veh ABCC12 (11746883_a_at) / RFU TMEM136 (11760407_x_at) / Fold change /veh TMEM136 (11760407_x_at) / RFU CLDN22 /// WWC2 (11732394_at) / Fold change /veh CLDN22 /// WWC2 (11732394_at) / RFU HLA-DPB1 (11760878_x_at) / Fold change /veh HLA-DPB1 (11760878_x_at) / RFU SPINT1 (11716480_a_at) / Fold change /veh SPINT1 (11716480_a_at) / RFU GAP43 (11754022_s_at) / Fold change /veh GAP43 (11754022_s_at) / RFU A4GNT (11735810_at) / Fold change /veh A4GNT (11735810_at) / RFU PRB3 (11715151_x_at) / Fold change /veh PRB3 (11715151_x_at) / RFU TUBB4B (11761932_at) / Fold change /veh TUBB4B (11761932_at) / RFU CAPN14 (11732068_a_at) / Fold change /veh CAPN14 (11732068_a_at) / RFU TMCC2 (11721928_a_at) / Fold change /veh TMCC2 (11721928_a_at) / RFU IRGQ (11745062_a_at) / Fold change /veh IRGQ (11745062_a_at) / RFU FAM174B (11720279_a_at) / Fold change /veh FAM174B (11720279_a_at) / RFU TMPRSS4 (11748680_a_at) / Fold change /veh TMPRSS4 (11748680_a_at) / RFU FAM212B (11763350_a_at) / Fold change /veh FAM212B (11763350_a_at) / RFU PLEKHG5 (11743358_a_at) / Fold change /veh PLEKHG5 (11743358_a_at) / RFU ZSCAN30 (11745921_a_at) / Fold change /veh ZSCAN30 (11745921_a_at) / RFU CMKLR1 (11741424_a_at) / Fold change /veh CMKLR1 (11741424_a_at) / RFU LOC101060620 /// MAPK8IP1 (11723275_at) / Fold change /veh LOC101060620 /// MAPK8IP1 (11723275_at) / RFU SPTSSB (11747773_x_at) / Fold change /veh SPTSSB (11747773_x_at) / RFU PRSS12 (11739890_at) / Fold change /veh PRSS12 (11739890_at) / RFU BIN1 (11741810_x_at) / Fold change /veh BIN1 (11741810_x_at) / RFU WNT11 (11732464_a_at) / Fold change /veh WNT11 (11732464_a_at) / RFU C10orf10 (11716521_a_at) / Fold change /veh C10orf10 (11716521_a_at) / RFU C5orf56 (11738089_at) / Fold change /veh C5orf56 (11738089_at) / RFU CYB561 (11721691_x_at) / Fold change /veh CYB561 (11721691_x_at) / RFU ANKRD19P (11752326_a_at) / Fold change /veh ANKRD19P (11752326_a_at) / RFU OR2T12 /// OR2T33 /// OR2T8 (11738714_s_at) / Fold change /veh OR2T12 /// OR2T33 /// OR2T8 (11738714_s_at) / RFU VCAN (11748164_a_at) / Fold change /veh VCAN (11748164_a_at) / RFU JSRP1 (11732532_at) / Fold change /veh JSRP1 (11732532_at) / RFU KRTAP10-11 (11738290_x_at) / Fold change /veh KRTAP10-11 (11738290_x_at) / RFU MYO3A (11730013_a_at) / Fold change /veh MYO3A (11730013_a_at) / RFU EBF3 (11725865_a_at) / Fold change /veh EBF3 (11725865_a_at) / RFU CAMK2N1 (11719241_x_at) / Fold change /veh CAMK2N1 (11719241_x_at) / RFU C5orf56 (11738088_a_at) / Fold change /veh C5orf56 (11738088_a_at) / RFU OLFML3 (11715873_a_at) / Fold change /veh OLFML3 (11715873_a_at) / RFU LOC100653217 /// NTM (11731650_a_at) / Fold change /veh LOC100653217 /// NTM (11731650_a_at) / RFU MAPK11 (11762145_a_at) / Fold change /veh MAPK11 (11762145_a_at) / RFU FIZ1 (11724087_x_at) / Fold change /veh FIZ1 (11724087_x_at) / RFU OASL (11726364_x_at) / Fold change /veh OASL (11726364_x_at) / RFU SOX15 (11748057_x_at) / Fold change /veh SOX15 (11748057_x_at) / RFU CD79A (11719716_a_at) / Fold change /veh CD79A (11719716_a_at) / RFU HIST1H1D (11736915_at) / Fold change /veh HIST1H1D (11736915_at) / RFU CASKIN2 (11723855_a_at) / Fold change /veh CASKIN2 (11723855_a_at) / RFU LOC730098 (11760151_x_at) / Fold change /veh LOC730098 (11760151_x_at) / RFU OR4N2 (11742367_at) / Fold change /veh OR4N2 (11742367_at) / RFU PRRT2 (11749266_a_at) / Fold change /veh PRRT2 (11749266_a_at) / RFU SNX32 (11753110_a_at) / Fold change /veh SNX32 (11753110_a_at) / RFU CDHR5 (11726645_a_at) / Fold change /veh CDHR5 (11726645_a_at) / RFU RCAN1 (11760418_a_at) / Fold change /veh RCAN1 (11760418_a_at) / RFU FAM167A (11723789_a_at) / Fold change /veh FAM167A (11723789_a_at) / RFU FAM26E (11764081_at) / Fold change /veh FAM26E (11764081_at) / RFU ISYNA1 (11749810_s_at) / Fold change /veh ISYNA1 (11749810_s_at) / RFU ACY1 (11761880_at) / Fold change /veh ACY1 (11761880_at) / RFU 11764098_at / Fold change /veh 11764098_at / RFU SAMD14 (11745864_x_at) / Fold change /veh SAMD14 (11745864_x_at) / RFU NPB (11741838_a_at) / Fold change /veh NPB (11741838_a_at) / RFU TMPRSS6 (11731388_a_at) / Fold change /veh TMPRSS6 (11731388_a_at) / RFU KRTAP10-2 (11738614_at) / Fold change /veh KRTAP10-2 (11738614_at) / RFU ARHGAP8 /// PRR5-ARHGAP8 (11727945_x_at) / Fold change /veh ARHGAP8 /// PRR5-ARHGAP8 (11727945_x_at) / RFU KRTAP5-7 /// NADSYN1 (11734609_at) / Fold change /veh KRTAP5-7 /// NADSYN1 (11734609_at) / RFU RASL12 (11751679_a_at) / Fold change /veh RASL12 (11751679_a_at) / RFU CDKN2B (11736163_a_at) / Fold change /veh CDKN2B (11736163_a_at) / RFU PRF1 (11729649_at) / Fold change /veh PRF1 (11729649_at) / RFU, ZNF638 /// ZNF638-IT1 / Fold change vs veh, ZNF638 /// ZNF638-IT1 / RFU, PANK3 / Fold change vs veh, PANK3 / RFU, SH3YL1 / Fold change vs veh, SH3YL1 / RFU, ZEB2 / Fold change vs veh, ZEB2 / RFU, NRIP1 / Fold change vs veh, NRIP1 / RFU, PTTG1IP / Fold change vs veh, PTTG1IP / RFU, CAPN2 / Fold change vs veh, CAPN2 / RFU, MED14 / Fold change vs veh, MED14 / RFU, SNORA58 / Fold change vs veh, SNORA58 / RFU, C1orf63 / Fold change vs veh, C1orf63 / RFU, LRRFIP1 / Fold change vs veh, LRRFIP1 / RFU, NDUFAF7 / Fold change vs veh, NDUFAF7 / RFU, SLC12A2 / Fold change vs veh, SLC12A2 / RFU, IBTK / Fold change vs veh, IBTK / RFU, ESF1 / Fold change vs veh, ESF1 / Fold change vs veh, TMEM50B / RFU, TAOK1 / Fold change vs veh, TAOK1 / RFU, ACBD3 / Fold change vs veh, ACBD3 / RFU, TMA16 / Fold change vs veh, TMA16 / RFU, RWDD3 / Fold change vs veh, RWDD3 / RFU, BCAT1 / Fold change vs veh, BCAT1 / RFU, EDEM3 / Fold change vs veh, EDEM3 / RFU, TMEM33 / Fold change vs veh, TMEM33 / RFU, WDR75 / Fold change vs veh, WDR75 / RFU, AHCTF1 / Fold change vs veh, AHCTF1 / RFU, TFRC / Fold change vs veh, TFRC / RFU, ZDHHC17 / Fold change vs veh, ZDHHC17 / RFU, NOM1 / Fold change vs veh, NOM1 / RFU, ARL8B / Fold change vs veh, ARL8B / RFU, ZBTB11 / Fold change vs veh, ZBTB11 / RFU, TAMM41 / Fold change vs veh, TAMM41 / RFU, KIAA1704 /// LOC100996395 / Fold change vs veh, KIAA1704 /// LOC100996395 / RFU, ING1 / Fold change vs veh, ING1 / RFU, TRMT61B / Fold change vs veh, TRMT61B / RFU, FUBP3 / Fold change vs veh, FUBP3 / RFU, TP53 / Fold change vs veh, TP53 / RFU, TNKS2 / Fold change vs veh, TNKS2 / RFU, ZFP14 / Fold change vs veh, ZFP14 / RFU, ACTR2 / Fold change vs veh, ACTR2 / RFU, PPP3R1 / Fold change vs veh, PPP3R1 / RFU, PIK3R1 / Fold change vs veh, PIK3R1 / RFU, HNRNPA1 / Fold change vs veh, HNRNPA1 / RFU, RNF170 / Fold change vs veh, RNF170 / RFU, ZNF28 / Fold change vs veh, ZNF28 / RFU, RNGTT / Fold change vs veh, RNGTT / RFU, OGT / Fold change vs veh, OGT / RFU, BRD1 / Fold change vs veh, BRD1 / RFU, MARS / Fold change vs veh, MARS / RFU, ZNF655 / Fold change vs veh, ZNF655 / RFU, FAHD1 / Fold change vs veh, FAHD1 / RFU, BDP1 / Fold change vs veh, BDP1 / RFU, LRRCC1 / Fold change vs veh, LRRCC1 / RFU, ARID1A / Fold change vs veh, ARID1A / RFU, ZNF146 / Fold change vs veh, ZNF146 / RFU, ZNF330 / Fold change vs veh, ZNF330 / RFU, GPN3 / Fold change vs veh, GPN3 / RFU, C9orf123 / Fold change vs veh, C9orf123 / RFU, N4BP2L2 / Fold change vs veh, N4BP2L2 / RFU, ARFIP1 / Fold change vs veh, ARFIP1 / RFU, FAM179B / Fold change vs veh, FAM179B / RFU, BCL10 / Fold change vs veh, BCL10 / RFU, UHRF1BP1L / Fold change vs veh, UHRF1BP1L / RFU, BET1 / Fold change vs veh, BET1 / RFU, CNOT2 / Fold change vs veh, CNOT2 / RFU, ZNF268 / Fold change vs veh, ZNF268 / Fold change vs veh, ZNF507 / RFU, DGCR2 / Fold change vs veh, DGCR2 / RFU, WDSUB1 / Fold change vs veh, WDSUB1 / Fold change vs veh, HSP90B1 /// MIR3652 / RFU, ADSS / Fold change vs veh, ADSS / RFU, GK / Fold change vs veh, GK / RFU, ZNF148 / Fold change vs veh, ZNF148 / RFU, TAF9 / Fold change vs veh, TAF9 / RFU, SLC1A5 / Fold change vs veh, SLC1A5 / RFU, SLMO2 / Fold change vs veh, SLMO2 / RFU, ABCC4 / Fold change vs veh, ABCC4 / RFU, LOC101060439 /// RAP1B / Fold change vs veh, LOC101060439 /// RAP1B / RFU, RFX7 / Fold change vs veh, RFX7 / RFU, GTPBP10 / Fold change vs veh, GTPBP10 / RFU, CNEP1R1 / Fold change vs veh, CNEP1R1 / RFU, BIVM-ERCC5 /// ERCC5 / Fold change vs veh, BIVM-ERCC5 /// ERCC5 / RFU, ILF3 / Fold change vs veh, ILF3 / RFU 11762660_at / Fold change /veh 11762660_at / RFU VCAN (11757783_s_at) / Fold change /veh VCAN (11757783_s_at) / RFU DDX43 (11728927_at) / Fold change /veh DDX43 (11728927_at) / RFU KRT8 (11758188_x_at) / Fold change /veh KRT8 (11758188_x_at) / RFU NKD1 (11759106_at) / Fold change /veh NKD1 (11759106_at) / RFU SRD5A1 (11742802_a_at) / Fold change /veh SRD5A1 (11742802_a_at) / RFU TPSAB1 /// TPSB2 (11721975_s_at) / Fold change /veh TPSAB1 /// TPSB2 (11721975_s_at) / RFU GSTM3 (11746129_a_at) / Fold change /veh GSTM3 (11746129_a_at) / RFU IL23R (11737362_x_at) / Fold change /veh IL23R (11737362_x_at) / RFU TMEM51 (11727254_a_at) / Fold change /veh TMEM51 (11727254_a_at) / RFU PIWIL2 (11732686_x_at) / Fold change /veh PIWIL2 (11732686_x_at) / RFU ORM1 (11744905_x_at) / Fold change /veh ORM1 (11744905_x_at) / RFU CCDC152 (11743942_at) / Fold change /veh CCDC152 (11743942_at) / RFU ECM1 (11717891_a_at) / Fold change /veh ECM1 (11717891_a_at) / RFU IL23R (11748794_a_at) / Fold change /veh IL23R (11748794_a_at) / RFU TNFAIP8L3 (11732012_x_at) / Fold change /veh TNFAIP8L3 (11732012_x_at) / RFU MBOAT4 (11741988_at) / Fold change /veh MBOAT4 (11741988_at) / RFU 11764193_at / Fold change /veh 11764193_at / RFU TMEM53 (11763286_at) / Fold change /veh TMEM53 (11763286_at) / RFU MAGEB2 (11727129_at) / Fold change /veh MAGEB2 (11727129_at) / RFU TMEM200A (11744735_a_at) / Fold change /veh TMEM200A (11744735_a_at) / RFU CCDC152 (11751479_a_at) / Fold change /veh CCDC152 (11751479_a_at) / RFU FAM211A (11726209_a_at) / Fold change /veh FAM211A (11726209_a_at) / RFU RGS16 (11746705_a_at) / Fold change /veh RGS16 (11746705_a_at) / RFU VCAN (11755009_s_at) / Fold change /veh VCAN (11755009_s_at) / RFU RHOB (11743442_s_at) / Fold change /veh RHOB (11743442_s_at) / RFU RGS16 (11720943_a_at) / Fold change /veh RGS16 (11720943_a_at) / RFU RGS16 (11720944_at) / Fold change /veh RGS16 (11720944_at) / RFU, VPS4B / Fold change vs veh, VPS4B / RFU, CREB1 / Fold change vs veh, CREB1 / RFU, DNAJC13 / Fold change vs veh, DNAJC13 / RFU, GNAQ / Fold change vs veh, GNAQ / RFU, CDK5R1 / Fold change vs veh, CDK5R1 / RFU, ZRANB3 / Fold change vs veh, ZRANB3 / RFU, CUL4A / Fold change vs veh, CUL4A / RFU, CCNY / Fold change vs veh, CCNY / RFU, UFL1 / Fold change vs veh, UFL1 / RFU, COG3 / Fold change vs veh, COG3 / RFU, DIAPH2 / Fold change vs veh, DIAPH2 / RFU, SKA2 / Fold change vs veh, SKA2 / RFU, AFF3 / Fold change vs veh, AFF3 / RFU, LMF1 / Fold change vs veh, LMF1 / RFU, IPO11 / Fold change vs veh, IPO11 / RFU, DFFB / Fold change vs veh, DFFB / RFU, FOXP1 / Fold change vs veh, FOXP1 / RFU, CARD8 / Fold change vs veh, CARD8 / RFU, STRN3 / Fold change vs veh, STRN3 / RFU, ADK / Fold change vs veh, ADK / RFU, RASSF2 / Fold change vs veh, RASSF2 / RFU, WIPF1 / Fold change vs veh, WIPF1 / RFU, LARP1B / Fold change vs veh, LARP1B / RFU, RASA1 / Fold change vs veh, RASA1 / RFU, RB1 / Fold change vs veh, RB1 / RFU, PPFIA1 / Fold change vs veh, PPFIA1 / RFU, MAT2A / Fold change vs veh, MAT2A / RFU, CCT5 / Fold change vs veh, CCT5 / RFU, WDR92 / Fold change vs veh, WDR92 / RFU, CUX1 / Fold change vs veh, CUX1 / RFU, TTC7A / Fold change vs veh, TTC7A / RFU, TMEM135 / Fold change vs veh, TMEM135 / RFU, DEPTOR / Fold change vs veh, DEPTOR / RFU, CPM / Fold change vs veh, CPM / RFU, DNAJB6 / Fold change vs veh, DNAJB6 / RFU, CACNA2D3 / Fold change vs veh, CACNA2D3 / RFU, DTX4 / Fold change vs veh, DTX4 / RFU, TFCP2 / Fold change vs veh, TFCP2 / RFU, GMCL1 /// GMCL1P1 / Fold change vs veh, GMCL1 /// GMCL1P1 / RFU, AEBP2 / Fold change vs veh, AEBP2 / RFU, SNHG1 /// SNORD22 /// SNORD25 /// SNORD26 /// SNORD27 /// SNORD28 /// SNORD29 /// SNORD31 / Fold change vs veh, SNHG1 /// SNORD22 /// SNORD25 /// SNORD26 /// SNORD27 /// SNORD28 /// SNORD29 /// SNORD31 / Fold change (Aza/veh), C12orf56 (ProbeSet 11735607_a_at) / Fold change (ACY-1035/veh), C12orf56 (ProbeSet 11735607_a_at) / Fold change (Aza/veh), FGFR1OP (ProbeSet 11751329_s_at) / Fold change (ACY-1035/veh), FGFR1OP (ProbeSet 11751329_s_at) / Fold change (Aza/veh), VPS36 (ProbeSet 11739960_a_at) / Fold change (ACY-1035/veh), VPS36 (ProbeSet 11739960_a_at) / RFU SYPL1 (11715823_x_at) / Fold change /veh SYPL1 (11715823_x_at) / RFU IGFBP7 (11715501_s_at) / Fold change /veh IGFBP7 (11715501_s_at) / RFU REEP3 (11722064_at) / Fold change /veh REEP3 (11722064_at) / RFU IGLL1 (11728026_x_at) / Fold change /veh IGLL1 (11728026_x_at): dose or concentration left out as unconfirmed
Conditions: ProbeSet 11746640_a_at; LIST D

Nc1ccc(-c2cccs2)cc1NC(=O)c1ccc2c(c1)cc(C1CC1)n2CCN1CCOCC1 [ACY-1035]
Fold change vs veh, RASSF2: 0.86
